According to PubChem BioAssay (NCI):
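Step 1: Grow cells in 96-well plates. Step 2: Expose to compound for 48 hours at 5 concentrations. Step 3: Interpolate endpoints linearly; if unreached, use highest concentration. TGI: total growth inhibition.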

Key:
Assay in all cases: DTP human tumour cell line panel, 48 h
CAKI-1 renal = test system: CAKI-1 renal
U251 CNS = test system: U251 CNS
SR leukemia = test system: SR leukemia
RXF 393 renal = test system: RXF 393 renal
BT-549 breast = test system: BT-549 breast
NCI-H460 lung = test system: NCI-H460 lung
DU-145 prostate = test system: DU-145 prostate
ACHN renal = test system: ACHN renal
KM12 colon = test system: KM12 colon
SW-620 colon = test system: SW-620 colon
HL-60(TB) leukemia = test system: HL-60(TB) leukemia
SK-MEL-5 melanoma = test system: SK-MEL-5 melanoma
COLO 205 colon = test system: COLO 205 colon
HCC-2998 colon = test system: HCC-2998 colon
UACC-257 melanoma = test system: UACC-257 melanoma
SK-OV-3 ovarian = test system: SK-OV-3 ovarian
OVCAR-8 ovarian = test system: OVCAR-8 ovarian
NCI-H23 lung = test system: NCI-H23 lung
LOX IMVI melanoma = test system: LOX IMVI melanoma
RPMI-8226 leukemia = test system: RPMI-8226 leukemia
SN12C renal = test system: SN12C renal
HOP-62 NSCLC = test system: HOP-62 NSCLC
SF-539 CNS = test system: SF-539 CNS
NCI-H522 lung = test system: NCI-H522 lung
IGROV1 ovarian = test system: IGROV1 ovarian
OVCAR-5 ovarian = test system: OVCAR-5 ovarian
SNB-75 CNS = test system: SNB-75 CNS
SK-MEL-28 melanoma = test system: SK-MEL-28 melanoma
MALME-3M melanoma = test system: MALME-3M melanoma
NCI-H226 lung = test system: NCI-H226 lung
K-562 leukemia = test system: K-562 leukemia
EKVX NSCLC = test system: EKVX NSCLC
A549 NSCLC = test system: A549 NSCLC
UACC-62 melanoma = test system: UACC-62 melanoma
TK-10 renal = test system: TK-10 renal
MDA-N = test system: MDA-N
HS 578T breast = test system: HS 578T breast
SNB-19 CNS = test system: SNB-19 CNS
HOP-92 NSCLC = test system: HOP-92 NSCLC
MOLT-4 leukemia = test system: MOLT-4 leukemia
HT29 colon = test system: HT29 colon
HCT-15 colon = test system: HCT-15 colon
MCF7 breast = test system: MCF7 breast
MDA-MB-435 = test system: MDA-MB-435
CCRF-CEM leukemia = test system: CCRF-CEM leukemia
UO-31 renal = test system: UO-31 renal
OVCAR-4 ovarian = test system: OVCAR-4 ovarian
NCI/ADR-RES ovarian = test system: NCI/ADR-RES ovarian
786-0 renal = test system: 786-0 renal
OVCAR-3 ovarian = test system: OVCAR-3 ovarian
SK-MEL-2 melanoma = test system: SK-MEL-2 melanoma
HCT-116 colon = test system: HCT-116 colon
SF-268 CNS = test system: SF-268 CNS
MDA-MB-231 breast = test system: MDA-MB-231 breast
M14 melanoma = test system: M14 melanoma
T-47D breast = test system: T-47D breast
PC-3 prostate = test system: PC-3 prostate
SF-295 CNS = test system: SF-295 CNS
A498 renal = test system: A498 renal

Q: What does the source list for `Cc1ccc(-c2nc(N/N=C/c3ccc(O)cc3)c3ccccc3n2)cc1`?
A: TGI (CAKI-1 renal): 31.8 µM; TGI (U251 CNS): 65.7 µM; TGI (SR leukemia): > 100 µM; TGI (RXF 393 renal): 76 µM; TGI (BT-549 breast): > 100 µM; TGI (NCI-H460 lung): 50.1 µM; TGI (DU-145 prostate): 75.2 µM; TGI (ACHN renal): 35.7 µM; TGI (KM12 colon): 41.4 µM; TGI (SW-620 colon): > 100 µM; TGI (HL-60(TB) leukemia): > 100 µM; TGI (SK-MEL-5 melanoma): 15.4 µM; TGI (COLO 205 colon): > 100 µM; TGI (HCC-2998 colon): 30.8 µM; TGI (UACC-257 melanoma): 15.4 µM; TGI (SK-OV-3 ovarian): > 100 µM; TGI (OVCAR-8 ovarian): > 100 µM; TGI (NCI-H23 lung): 33.8 µM; TGI (LOX IMVI melanoma): 36.2 µM; TGI (RPMI-8226 leukemia): > 100 µM; TGI (SN12C renal): 25.4 µM; TGI (HOP-62 NSCLC): > 100 µM; TGI (SF-539 CNS): > 100 µM; TGI (NCI-H522 lung): 30.1 µM; TGI (IGROV1 ovarian): > 100 µM; TGI (OVCAR-5 ovarian): 61.9 µM; TGI (SNB-75 CNS): 64 µM; TGI (SK-MEL-28 melanoma): 81.5 µM; TGI (MALME-3M melanoma): 29.4 µM; TGI (NCI-H226 lung): > 100 µM; TGI (K-562 leukemia): > 100 µM; TGI (EKVX NSCLC): 37.4 µM; TGI (A549 NSCLC): > 100 µM; TGI (UACC-62 melanoma): 26.4 µM; TGI (TK-10 renal): 68.5 µM; TGI (MDA-N): 23.7 µM; TGI (HS 578T breast): > 100 µM; TGI (SNB-19 CNS): > 100 µM; TGI (HOP-92 NSCLC): > 100 µM; TGI (MOLT-4 leukemia): > 100 µM; TGI (HT29 colon): > 100 µM; TGI (HCT-15 colon): > 100 µM; TGI (MCF7 breast): 26.2 µM; TGI (MDA-MB-435): 48.2 µM; TGI (CCRF-CEM leukemia): > 100 µM; TGI (UO-31 renal): 24.7 µM; TGI (OVCAR-4 ovarian): 16.2 µM; TGI (NCI/ADR-RES ovarian): > 100 µM; TGI (786-0 renal): 71.9 µM; TGI (OVCAR-3 ovarian): > 100 µM; TGI (SK-MEL-2 melanoma): 32.7 µM; TGI (HCT-116 colon): 37.6 µM; TGI (SF-268 CNS): > 100 µM; TGI (MDA-MB-231 breast): 91.5 µM; TGI (M14 melanoma): 18.9 µM; TGI (T-47D breast): 26 µM; TGI (PC-3 prostate): 31.7 µM; TGI (SF-295 CNS): 89.5 µM

Q: For `CCOC(=O)C(NC(=O)c1ccccc1)(N1CCN(c2cc3c(cc2F)c(=O)c(C(=O)O)cn3CC)CC1)C(F)(F)F` (stereo unspecified), which TGI (CAKI-1 renal) is on record?
A: 48.4 µM

Q: And the TGI (U251 CNS)?
A: > 100 µM

Q: What about the TGI (SR leukemia) of the same compound?
A: 62.5 µM

Q: And the TGI (RXF 393 renal)?
A: > 100 µM

Q: What about the TGI (BT-549 breast) of the same compound?
A: > 100 µM

Q: What about the TGI (NCI-H460 lung) of the same compound?
A: > 100 µM

Q: What about the TGI (DU-145 prostate) of the same compound?
A: > 100 µM

Q: What about the TGI (ACHN renal) of the same compound?
A: > 100 µM

Q: And the TGI (KM12 colon)?
A: 81.3 µM

Q: What about the TGI (SW-620 colon) of the same compound?
A: > 100 µM

Q: And the TGI (HL-60(TB) leukemia)?
A: 43 µM

Q: And the TGI (SK-MEL-5 melanoma)?
A: 65.7 µM

Q: And the TGI (COLO 205 colon)?
A: 31.1 µM

Q: What about the TGI (HCC-2998 colon) of the same compound?
A: > 100 µM

Q: And the TGI (UACC-257 melanoma)?
A: 44.7 µM

Q: And the TGI (SK-OV-3 ovarian)?
A: 79.5 µM

Q: What about the TGI (OVCAR-8 ovarian) of the same compound?
A: 47.3 µM

Q: What about the TGI (NCI-H23 lung) of the same compound?
A: > 100 µM

Q: And the TGI (LOX IMVI melanoma)?
A: 35.4 µM

Q: And the TGI (RPMI-8226 leukemia)?
A: 69 µM

Q: And the TGI (SN12C renal)?
A: > 100 µM

Q: What about the TGI (HOP-62 NSCLC) of the same compound?
A: > 100 µM

Q: And the TGI (SF-539 CNS)?
A: 82.9 µM

Q: What about the TGI (NCI-H522 lung) of the same compound?
A: 32.4 µM

Q: And the TGI (IGROV1 ovarian)?
A: > 100 µM

Q: What about the TGI (OVCAR-5 ovarian) of the same compound?
A: 45.3 µM

Q: And the TGI (SNB-75 CNS)?
A: 90 µM

Q: What about the TGI (MALME-3M melanoma) of the same compound?
A: 90.1 µM

Q: And the TGI (NCI-H226 lung)?
A: 90.7 µM

Q: What about the TGI (K-562 leukemia) of the same compound?
A: > 100 µM

Q: What about the TGI (EKVX NSCLC) of the same compound?
A: 49 µM

Q: What about the TGI (A549 NSCLC) of the same compound?
A: > 100 µM

Q: What about the TGI (UACC-62 melanoma) of the same compound?
A: > 100 µM

Q: What about the TGI (TK-10 renal) of the same compound?
A: 94.8 µM

Q: And the TGI (MDA-N)?
A: > 100 µM

Q: And the TGI (HS 578T breast)?
A: > 100 µM

Q: And the TGI (SNB-19 CNS)?
A: > 100 µM

Q: And the TGI (HOP-92 NSCLC)?
A: 84.4 µM

Q: And the TGI (MOLT-4 leukemia)?
A: 54.2 µM

Q: What about the TGI (HT29 colon) of the same compound?
A: > 100 µM

Q: And the TGI (HCT-15 colon)?
A: 64.9 µM

Q: And the TGI (MCF7 breast)?
A: 69.2 µM

Q: What about the TGI (MDA-MB-435) of the same compound?
A: > 100 µM

Q: And the TGI (CCRF-CEM leukemia)?
A: 86.2 µM

Q: And the TGI (UO-31 renal)?
A: 98.1 µM

Q: What about the TGI (OVCAR-4 ovarian) of the same compound?
A: > 100 µM

Q: And the TGI (NCI/ADR-RES ovarian)?
A: > 100 µM

Q: And the TGI (786-0 renal)?
A: > 100 µM

Q: What about the TGI (OVCAR-3 ovarian) of the same compound?
A: > 100 µM

Q: And the TGI (SK-MEL-2 melanoma)?
A: > 100 µM

Q: What about the TGI (HCT-116 colon) of the same compound?
A: > 100 µM

Q: What about the TGI (A498 renal) of the same compound?
A: 65.2 µM

Q: And the TGI (SF-268 CNS)?
A: > 100 µM

Q: What about the TGI (MDA-MB-231 breast) of the same compound?
A: 82.9 µM

Q: What about the TGI (M14 melanoma) of the same compound?
A: > 100 µM

Q: What about the TGI (T-47D breast) of the same compound?
A: 88.6 µM

Q: And the TGI (PC-3 prostate)?
A: > 100 µM

Q: And the TGI (SF-295 CNS)?
A: > 100 µM
